`Cc1cnc(-n2ccc(C(F)(F)F)n2)nc1C(=O)c1cccc(C(F)(F)F)c1` [Example 4, [5-methyl-2-[3-(trifluoromethyl)-1H-pyrazol-1-yl]-4-pyrimidinyl][3-(trifluoromethyl)phenyl]methanone] showed a melting point of 82 to 91 °C.

Regarding `Cc1cnc(-c2ccc(C(F)(F)F)cc2)nc1C(=O)c1cccc(C(F)(F)F)c1` [Example 5, [5-methyl-2-[4-(trifluoromethyl)phenyl]-4-pyrimidinyl][3-(trifluoromethyl)phenyl]methanone], the melting point lay in the range of 98 to 100 °C.

Values taken from US6525001B1, “Substituted pyrimidine and pyridine herbicides” (Mid-American Commercialization Corporation, priority 1997, dated 2003).
